ChEMBL document CHEMBL4665784, “Discovery of an Inhibitor for the TREK-1 Channel Targeting an Intermediate Transition State of Channel Gating” (J Med Chem, 2020)
Calls of active or inactive are those of the source. The calls are words filed in the database; no cut-off is given here.

What was measured:
Format in all cases: cell-based
[1] = biological target: T1, Potassium channel subfamily K member 2 (Homo sapiens) (UniProt O95069); experiment: Inhibition of human TREK1 D294A mutant at intermediate transition state expressed in CHO cells by whole-cell patch-clamp electrophysiological method
T1 sequence (whole entry): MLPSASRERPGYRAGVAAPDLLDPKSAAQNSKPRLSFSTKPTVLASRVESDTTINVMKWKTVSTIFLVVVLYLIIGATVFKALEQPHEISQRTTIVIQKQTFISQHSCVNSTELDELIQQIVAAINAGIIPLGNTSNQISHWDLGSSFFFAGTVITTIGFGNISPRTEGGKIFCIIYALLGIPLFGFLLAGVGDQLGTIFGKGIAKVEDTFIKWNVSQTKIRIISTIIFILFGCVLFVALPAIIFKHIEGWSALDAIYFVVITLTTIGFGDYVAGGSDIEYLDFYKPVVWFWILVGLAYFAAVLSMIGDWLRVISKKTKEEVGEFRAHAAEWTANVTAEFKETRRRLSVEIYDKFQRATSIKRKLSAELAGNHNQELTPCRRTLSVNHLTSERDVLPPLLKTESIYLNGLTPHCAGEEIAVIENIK

[2] = biological target: T1, Potassium channel subfamily K member 2 (Homo sapiens); experiment: (§1) Inhibition of human TREK1 at intermediate transition state expressed in CHO cells by whole-cell patch-clamp electrophysiological method
[3] = biological target: T1, Potassium channel subfamily K member 2 (Homo sapiens); experiment: Inhibition of human TREK1 S290A mutant at intermediate transition state expressed in CHO cells by whole-cell patch-clamp electrophysiological method
[4] = biological target: T1, Potassium channel subfamily K member 2 (Homo sapiens); experiment: Inhibition of human TREK1 R207A mutant at intermediate transition state expressed in CHO cells by whole-cell patch-clamp electrophysiological method
[5] = biological target: T2, Potassium channel subfamily K member 4 (Homo sapiens) (UniProt Q9NYG8); experiment: Inhibition of human TRAAK at intermediate transition state expressed in CHO cells by whole-cell patch-clamp electrophysiological method
T2 sequence (whole entry): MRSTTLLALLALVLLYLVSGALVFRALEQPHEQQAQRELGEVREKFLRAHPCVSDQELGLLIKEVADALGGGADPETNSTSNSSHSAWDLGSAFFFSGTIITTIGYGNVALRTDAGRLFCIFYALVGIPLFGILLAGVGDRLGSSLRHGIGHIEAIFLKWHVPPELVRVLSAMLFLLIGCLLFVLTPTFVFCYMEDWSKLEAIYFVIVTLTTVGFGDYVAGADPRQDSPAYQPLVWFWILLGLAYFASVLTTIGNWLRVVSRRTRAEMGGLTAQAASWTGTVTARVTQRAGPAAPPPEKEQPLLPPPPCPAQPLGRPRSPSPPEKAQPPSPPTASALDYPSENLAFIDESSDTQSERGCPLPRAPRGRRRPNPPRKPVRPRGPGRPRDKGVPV

[6] = biological target: T1, Potassium channel subfamily K member 2 (Homo sapiens); experiment: Inhibition of human TREK1 W295A mutant at intermediate transition state expressed in CHO cells by whole-cell patch-clamp electrophysiological method
[7] = biological target: T3, Potassium channel subfamily K member 2 (Homo sapiens, UniProt O95069); experiment: as §1
T3 sequence (O95069 whole entry): T1 sequence (whole entry)

[8] = biological target: T1, Potassium channel subfamily K member 2 (Homo sapiens); experiment: Inhibition of human TREK1 M291A mutant at intermediate transition state expressed in CHO cells by whole-cell patch-clamp electrophysiological method
[9] = biological target: T1, Potassium channel subfamily K member 2 (Homo sapiens); experiment: Inhibition of human TREK1 at intermediate transition state expressed in CHO cells assessed as decrease in probability of TREK1 channel being in open state by single-channel recordings based by inside-out patch method
[10] = biological target: T1, Potassium channel subfamily K member 2 (Homo sapiens); experiment: Inhibition of human TREK1 V288A mutant at intermediate transition state expressed in CHO cells by whole-cell patch-clamp electrophysiological method
[11] = biological target: T4, Potassium channel subfamily K member 10 (Homo sapiens) (UniProt P57789); experiment: Inhibition of human TREK2 at intermediate transition state expressed in CHO cells by whole-cell patch-clamp electrophysiological method
T4 sequence (whole entry): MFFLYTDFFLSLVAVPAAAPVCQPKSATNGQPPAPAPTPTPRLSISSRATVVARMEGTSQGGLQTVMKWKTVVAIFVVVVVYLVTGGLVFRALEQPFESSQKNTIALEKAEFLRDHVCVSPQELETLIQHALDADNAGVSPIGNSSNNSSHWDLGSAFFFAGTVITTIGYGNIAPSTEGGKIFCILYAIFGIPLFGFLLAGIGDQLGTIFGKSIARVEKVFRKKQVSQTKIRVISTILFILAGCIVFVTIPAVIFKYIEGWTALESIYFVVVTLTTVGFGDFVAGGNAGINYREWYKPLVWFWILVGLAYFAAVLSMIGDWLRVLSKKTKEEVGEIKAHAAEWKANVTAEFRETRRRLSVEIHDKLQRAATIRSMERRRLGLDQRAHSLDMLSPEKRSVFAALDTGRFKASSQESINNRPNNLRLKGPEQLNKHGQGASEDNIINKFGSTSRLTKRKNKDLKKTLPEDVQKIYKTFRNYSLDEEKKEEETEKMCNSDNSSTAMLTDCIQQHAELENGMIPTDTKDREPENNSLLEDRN

[12] = biological target: T1, Potassium channel subfamily K member 2 (Homo sapiens); experiment: Inhibition of human TREK1 T211A mutant at intermediate transition state expressed in CHO cells by whole-cell patch-clamp electrophysiological method
[13] = biological target: T1, Potassium channel subfamily K member 2 (Homo sapiens); experiment: Inhibition of human TREK1 in open state expressed in CHO cells in presence of 10 uM TREK1 activator arachidonic acid by whole-cell patch-clamp electrophysiological method
[14] = biological target: T1, Potassium channel subfamily K member 2 (Homo sapiens); experiment: Effect on channel conductance of human TREK1 expressed in CHO cells by single-channel recordings based by inside-out patch method

| Structure (SMILES) | inhibition [1] | inhibition [2] | inhibition [3] | inhibition [4] | inhibition [5] | inhibition [6] | IC50 [7] [nM] | inhibition [8] | inhibition [9] | inhibition [10] | inhibition [11] | inhibition [12] | inhibition [13] | Activity [14] |
| --- | --- | --- | --- | --- | --- | --- | --- | --- | --- | --- | --- | --- | --- | --- |
| O=C(CSc1ccc2cc(F)ccc2n1)NNC(=O)c1ccc(Cl)cc1 | inactive | Active | Active |  |  |  |  |  |  |  |  |  |  |  |
| COc1ccc2nc(SCC(=O)NNC(=O)c3ccc(Cl)cc3)ccc2c1 | Active | Active | inactive |  |  |  |  |  |  |  |  |  |  |  |
| CNCCC(Oc1ccc(C(F)(F)F)cc1)c1ccccc1 (stereo unspecified) |  |  |  | inactive |  |  |  |  |  |  |  |  |  |  |
| O=C(CSc1ccc2ccccc2n1)NNC(=O)c1ccc(Cl)cc1 | inactive | Dose-dependent effect | Active | Active | inactive | inactive | 2990 | inactive | Active | Active | Active | inactive | inactive | inactive |
